Laboratory results from patent US11142588B2, “Polypeptides which bind C-X-C chemokine receptor type 4 (CXCR4) and methods of treating or reducing the risk of fibrosis and cancer” (AdAlta Limited, priority 2015, dated 2021).
“Also recorded” adds a separate entry of the source.

Tests used:
[1] = system: Human platelet rich plasma; test: SDF-1α induced platelet aggregation; type: cell-based; conditions: 10 or 20 ug/mL, 100 nM SDF-1 alpha
Method: Experiments were carried out to examine whether the i-bodies could block platelet aggregation induced by SDF-1α. […] In the presence of negative control i-body 21H5 (or the isotype control for 12G5: mouse IgG2a). SDF-1 induced a robust and reproducible aggregation (the descending black curves, which indicate an increase in light transmission), which matches with what has been previously published.

[2] = system: human CD34+ stem and progenitor cells; test: Mobilisation of human CD34+ cells in humanised NSG mice; type: in vivo, humanized NODSIL2Rγ (NSG) mice; conditions: humanised NSG mouse model, compared to AMD3100
Method: To acquire evidence of mobilisation of human CD34^+ stem and progenitor cells using CXCR4 i-bodies, the above mobilisation experiment was conducted in humanized NODSIL2Rγ (NSG) mice. NSG mice are severely immunodeficient and lack mature T cells, B-cells and NK cells and have severely defective innate immunity, which allows engraftment of human cells without subsequent rejection. NSG mice were transplanted with freshly sorted CD34^+ cord blood cells and upon confirmation of positive human CD45/CD34 engraftment (˜4-5 weeks) were used as a mouse model for human stem cell mobilisation.
Mobilised peripheral blood was harvested and assessed for CD34^+ (human stem and progenitors).

[3] = Murine air pouch model with SDF-1; type: in vivo, BALB/c mice; conditions: intraperitoneal, 30 minutes before SDF-1 6 μg
Method: The ability of i-bodies to block inflammation was evaluated in an in vivo murine air pouch model. The subcutaneous (s.c.) air pouch is an in vivo model used to study acute and chronic inflammation (Durate et al, Models of Inflammation: Carrageenan Air Pouch, Current Protocols in Pharmacology 5.6.1-5.6.8, March 2012). Injection of irritants into an air pouch in rats or mice induces an inflammatory response that can be quantified by the volume of exudate produced, the infiltration of cells, and the release of inflammatory mediators. An air pouch, is generated by injection of sterile air under the skin of the back of the mouse. […] Air pouch lavage fluid is then analyzed for cell trafficking and cytokine release.
The air pouch assay was performed on 7-week-old BALB/c mice. On days 1 and 3, 0.2 ml/g initial body weight (IBW) of sterile air was injected under the back skin to create the pouch. […] Thirty minutes later, SDF-1 (6 μg) was injected into the pouch. Four hours later, the mice were killed in a CO2 chamber and the air pouch was washed. Cells were collected, counted, and characterized by flow cytometry.

[4] = system: Ramos tumor cells; test: MTT cell proliferation assay; type: cell-based, human; conditions: 24 to 72 hrs, AM3-114 at 10 μM
Method: The ability of the CXCR4 molecules or polypeptides disclosed herein (i-bodies) to inhibit proliferation of Ramos tumor cells, a human Burkitt's lymphoma cell line expressing CXCR4 mentioned above, in vitro was examined in a MTT cell proliferation assay as described in (Lapteva (2005) Cancer Gene Therapy 12, 84-89). Cells were grown in a 96-well tissue culture plate and treated with a vehicle or the anti-CXCR4 body. The cells were then incubated with the MTT solution for approximately 4 hours. After this incubation period, a water-insoluble formazan dye is formed. After solubilization, the formazan dye is quantitated using a scanning multi-well spectrophotometer (ELISA reader).

[5] = Bleomycin mouse model of pulmonary fibrosis; type: in vivo
Procedure, shortened: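 Mice received bleomycin 2 U/mouse, with i-body dosed just before; at day 4, BAL SDF-1, lung fibrocytes (CD45+ CXCR4+ Collagen1+ by flow cytometry of collagenase/dispase suspensions), Sircol collagen staining and Col-1, Col-3, SDF-1 RNA were assessed. A separate 21-day bleomycin study tested PEGylated i-body.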

[6] = system: Ramos tumor cells; test: Apoptosis assay (annexin V / propidium iodide flow cytometry); type: cell-based, human; conditions: annexin V and propidium iodide double positive, 24 or 72 hours
[7] = system: human CD34+CD38− HSC; test: In vitro flow cytometric binding to HSC; type: cell-based; conditions: 10 μg/ml; for binding to human Cord Blood HSC: in decreasing avidity
Method: To determine whether CXCR4 i-bodies bind HSC, in vitro binding analysis to human CD34+CD38^− cells was assessed. Umbilical cord blood (CB) and human bone marrow (BM) were collected as previously described (Nilsson S K et al, 2005 15; 106(4):1232-9; Grassinger, 2009 2; 114(1):49-59). Enriched human BM CD34+ cells and purified CB CD34^+ cells were isolated as previously described (Grassinger, 2009). Human CB and BM CD34+ cells and huNSG BM were stained sequentially with CXCR4 i-bodies (10 μg/ml), anti-His-PE and an antibody cocktail containing CD34-FITC (BD Biosciences #348053) and CD38-BV421 (BD Horizon #562444), washed with PBS (0.5% BSA) and analysed by flow cytometry on a Cytopeia Influx (BD) as previously described (Grassinger, 2009). For analysis of human and murine BM and PB, up to 5×10^6 cells were analyzed at 10-20,000 cells/sec. Data were analyzed using FlowJo 10 software (FlowJo, LLC). For analysis of huNSG BM, huCD45-PECy7 (BD Biosciences #557748) and muCD45-BUV395 (BD Biosciences #564279) were also included in the antibody cocktail. HSC from human CB and BM were defined as CD34+CD38− and HSC from huNSG mice were defined as muCD45^−huCD45^+CD34^+CD38^−. CB and BM samples from 3 individual donors and BM from 3 individual huNSG mice were assessed.

binding to human Cord Blood HSC [7] | Molecule | blocking of SDF-1α induced platelet aggregation [1] | mobilisation of human CD34+ stem cells [2] | cell migration / leukocyte infiltration into the air pouch [3] | growth of RAMOS cells [4] | collagen content of the lung (Sircol) ([5]; 30 mg/kg) | recruitment of fibrocytes into the lungs ([5]; 30 mg/kg, day 4, CD45+ CXCR4+ Col 1+ cells) | induction of apoptosis in Ramos cells [6] | binding to human Bone Marrow HSC and Bone Marrow from huNSG mice [7] | recruitment of fibrocytes into the lungs ([5]; 1 mg/Kg, day 4) | recruitment of fibrocytes into the lungs ([5]; day 4, dose not given)
effectively bound | AM3-114: affinity matured CXCR4 i-body, SEQ ID NO: 40 | most effective; also recorded: most efficient | do not mobilise stem cells | inhibiting leukocyte infiltration; also recorded: inhibited cell migration | substantially inhibit the growth | reduced the collagen content | dramatically attenuate | induced apoptosis | effectively bound |  | 
effectively bound | AM3-523: affinity matured CXCR4 i-body, SEQ ID NO: 56 (protein, protein sequence encoding AM3-523) LQVDIVPSQGEISVGESKFFLCQVAGSGSHMRISWFSPNGEKLTPNQQRISVVWNDDSSSTLTIYNANIDDAGIYKCVVWVGGYRHRALVLGEATVNVKIFQ | blocked aggregation to the same extent as the MAb12G5 | do not mobilise stem cells | inhibiting leukocyte infiltration; also recorded: inhibited cell migration | no observable effect | reduced the collagen content |  | induced apoptosis |  | block recruitment of fibrocytes | significantly attenuate
